According to patent US20210100777A1, “HEAT SHOCK PROTEIN (HSP) INHIBITION AND MONITORING EFFECTIVENESS THEREOF” (H. LEE MOFFITT CANCER CENTER AND RESEARCH INSTITUTE, INC., priority 2013, published 2021):

Experiments:
[1] = test system: HSPs in RPMI-8226 cells; assay: LC-MRM relative quantification of HSPs after 17-DMAG (Example 2); type: cell-based, human; details: for CDC37 Fold Change, LC-MRM / HS90A Fold Change, LC-MRM / HS90B Fold Change, LC-MRM / HSP7C Fold Change, LC-MRM / HSP7E Fold Change, LC-MRM / HSP71 Fold Change, LC-MRM / HSP74 Fold Change, LC-MRM / HSPA5 Fold Change, LC-MRM / HSP90α Fold Change, LC-MRM: RPMI-8226, 100 nM; for CDC37 Fold Change, LC-MRM / HS90A Fold Change, LC-MRM / HS90B Fold Change, LC-MRM / HSP7C Fold Change, LC-MRM / HSP7E Fold Change, LC-MRM / HSP71 Fold Change, LC-MRM / HSP74 Fold Change, LC-MRM / HSPA5 Fold Change, LC-MRM: 24 hrs after treatment vs. control; for HSP90α Fold Change, LC-MRM: 24 hrs vs. control
Description: (§1) Cell Culture, Lysis, and HSP Sample Preparation for Mass Spectrometry. RPMI-8226 and 8226/LR5 cells were maintained as previously described (Bellamy et al., Cancer Res. 51:995-1002 (1991); Remily-Wood et al., Proteomics Clin. Appl. 5:383-96 (2011)). The heat shock protein 90 inhibitor, 17-desmethoxy-17-N,N-dimethylaminoethylamino-geldanamycin (17-DMAG), was dissolved in DMSO (100 μM stock). Based on prior IC50 measurements, the RPMI-8226 cells were treated with 100 nM 17-DMAG for 24 hours, and 8226/LR5 cells were treated with 50 nM 17-DMAG. Cells (n=10^6) were lysed using in aqueous 100 mM ammonium bicarbonate containing 8M urea for protein denaturation. Protein concentrations were measured by Bradford assays; consistent aliquots of total protein (380 ng) were injected for LC-MRM, and the same solutions were used for DI-MRM. Digestion, addition of SIS peptides, and mass spectrometry sample preparation were performed as described for standard proteins.
(§2) […] Quantification. For HSP proteins in cell lysate, 184 transitions from 32 peptides (see Table 2) were monitored as previously described (Remily-Wood et al., Proteomics Clin. Appl. 5:383-96 (2011)). Both relative and absolute quantification were calculated from the sum of the peak areas for all detected transitions using Skyline (MacLean et al., Bioinformatics 26:966-8 (2010)) or the combination of MRMer (Martin et al., Mol. Cell Proteomics 7:2270-8 (2008)) and Post-MRMer (http://proteome.moffitt. org).

[2] = test system: HSPs in 8226/LR5 cells; assay: as above; type: cell-based, human; details: for CDC37 Fold Change, LC-MRM / HS90A Fold Change, LC-MRM / HS90B Fold Change, LC-MRM / HSP7C Fold Change, LC-MRM / HSP7E Fold Change, LC-MRM / HSP71 Fold Change, LC-MRM / HSP74 Fold Change, LC-MRM / HSPA5 Fold Change, LC-MRM / HSP90α Fold Change, LC-MRM: 8226/LR5, 50 nM; for CDC37 Fold Change, LC-MRM / HS90A Fold Change, LC-MRM / HS90B Fold Change, LC-MRM / HSP7C Fold Change, LC-MRM / HSP7E Fold Change, LC-MRM / HSP71 Fold Change, LC-MRM / HSP74 Fold Change, LC-MRM / HSPA5 Fold Change, LC-MRM: 24 hrs after treatment vs. control; for HSP90α Fold Change, LC-MRM: 24 hrs vs. control
Description: as §1, §2

[3] = test system: HSP90 client and apoptosis proteins in vemurafenib-resistant melanoma cell lines; assay: Western blotting; type: cell-based
Description: Western blotting. Proteins were extracted and blotted for as described previously (Smalley et al., Br. J. Cancer 96:445-9 (2007)). […] The antibodies to IGF1R, PDGFRβ, ARAF, CRAF, phospho-AKT Ser473, total AKT, phospho-ERK, total ERK, cyclin D1, phospho-S6, total S6, phospho-BIM (Ser69), total BIM, HSP70 and MCL-1 were from Cell Signaling Technology (Beverly, Mass.). Anti-26S was purchased from Abcam (Cambridge, Mass.), and the antibody against COT was from Santa Cruz Biotechnology (Santa Cruz, Calif.).

[4] = y3-y5 (DI-MRM Interference-Corrected)
[5] = y3-y6 (DI-MRM Interference-Corrected)

## CO[C@H]1/C=C\C=C(/C)C(=O)NC2=CC(=O)C(NCCN(C)C)=C(C[C@@H](C)C[C@H](OC)[C@H](O)[C@@H](C)/C=C(\C)[C@@H]1OC(N)=O)C2=O [17-DMAG, 17-Dimethylaminoethylamino-17-demethoxygeldanamycin]
[1]; Table 6
  CDC37 Fold Change, LC-MRM: 1.33
  HS90A Fold Change, LC-MRM: 2.21
  HS90B Fold Change, LC-MRM: 1.53
  HSP7C Fold Change, LC-MRM: 2.28
  HSP7E Fold Change, LC-MRM: 1.23
  HSP71 Fold Change, LC-MRM: 4.67
  HSP74 Fold Change, LC-MRM: 1.45
  HSPA5 Fold Change, LC-MRM: 2.66
[1]; Table 7
  CDC37 Fold Change, LC-MRM: 1.33
  HS90A Fold Change, LC-MRM: 2.21
  HS90B Fold Change, LC-MRM: 1.53
  HSP7C Fold Change, LC-MRM: 2.28
  HSP7E Fold Change, LC-MRM: 1.23
  HSP71 Fold Change, LC-MRM: 4.67
  HSP74 Fold Change, LC-MRM: 1.45
  HSPA5 Fold Change, LC-MRM: 2.66
[1]; y3 (Least Interference)
  HSP90α Fold Change, LC-MRM: 2.19
[1]; [4]
  HSP90α Fold Change, LC-MRM: 2.21
[1]; y3-y5 (Selected Transitions)
  HSP90α Fold Change, LC-MRM: 2.21
[1]; [5]
  HSP90α Fold Change, LC-MRM: 2.21
[1]; RPMI-8226, 24 hours after treatment, same for y3-y6, y3-y5 or just y3
  HSP90α expression increase, LC-MRM: approximately 2.2 fold
[2]; Table 6
  CDC37 Fold Change, LC-MRM: 1.08
  HS90A Fold Change, LC-MRM: 1.23
  HS90B Fold Change, LC-MRM: 1.28
  HSP7C Fold Change, LC-MRM: 1.56
  HSP7E Fold Change, LC-MRM: 0.99
  HSP71 Fold Change, LC-MRM: 3.54
  HSP74 Fold Change, LC-MRM: 1.34
  HSPA5 Fold Change, LC-MRM: 1.53
[2]; Table 7
  CDC37 Fold Change, LC-MRM: 1.08
  HS90A Fold Change, LC-MRM: 1.23
  HS90B Fold Change, LC-MRM: 1.28
  HSP7C Fold Change, LC-MRM: 1.56
  HSP7E Fold Change, LC-MRM: 0.99
  HSP71 Fold Change, LC-MRM: 3.54
  HSP74 Fold Change, LC-MRM: 1.34
  HSPA5 Fold Change, LC-MRM: 1.53
[2]; y3 (Least Interference)
  HSP90α Fold Change, LC-MRM: 1.26
[2]; [4]
  HSP90α Fold Change, LC-MRM: 1.23
[2]; y3-y5 (Selected Transitions)
  HSP90α Fold Change, LC-MRM: 1.23
[2]; [5]
  HSP90α Fold Change, LC-MRM: 1.23
[2]; 8226/LR5, 24 hours after treatment, same for y3-y6, y3-y5 or just y3
  HSP90α expression increase, LC-MRM: ~1.2 fold

## CC[C@@H](C)Nc1cc(C(=O)N[C@@H]2C[C@H]3CC[C@@H](C2)N3c2ccc(C(=O)C3CC3)cn2)c(C)cc1C(N)=O [XL888, 5-((R)-sec-butylamino)-N1-((1R,3s,5S)-8-(5-(cyclopropanecarbonyl)pyridin-2-yl)-8-azabicyclo[3.2.1]octan-3-yl)-2-methylterephthalamide]
[3]; 300 nM, 48 hours
  26S proteasome, Western blot: partly degrade the 26S proteasome
[3]; 300 nM, 48 hours, all cell lines tested apart from M249R
  BIM phosphorylation at Ser69: decreased BIM phosphorylation at Ser69
[3]; 300 nM, 48 hours, all cell lines with acquired BRAF inhibitor resistance
  client protein degradation and signaling: degradation of IGF1R, PDGFRβ, ARAF, CRAF and cyclin D1 and the inhibition of AKT, ERK and S6 signaling
[3]; 300 nM, 48 hours, entire cell line panel
  BIM expression: increased BIM expression across the entire cell line panel
[3]; 300 nM, 48 hours, every cell line evaluated
  HSP70 expression, Western blot: increases in HSP70 expression
[3]; 300 nM, 48 hours, resistance through PDGFRβ, COT overexpression and two unknown mechanisms
  expression of Mcl-1, Western blot: marked decrease in the expression of Mcl-1
[3]; intrinsically vemurafenib-resistant RPMI7951 and WM39, respectively
  COT and cyclin D1 expression: degrade both COT and cyclin D1
